Patent US10172824B2, “Crystal forms of scutellarin aglycone and preparation thereof” (YUNNAN INSTITUTE OF MATERIA MEDICA, priority 2014, dated 2019)
Like-named read-outs stand apart in the source and are kept apart here.

Assays:
[1] = Stability of crystal forms; details: room temperature below 50° C.
[2] = test system: MCAO-induced ischemia-reperfusion rat; test: Cerebral infarction percentage 48 h after reperfusion (TTC staining) in MCAO ischemia/reperfusion rats; format: in vivo
Description: SD male rat was fasted one night, with free access to water. At the day of experiment, the rat was anesthetized by intraperitoneal injection of 35% chloral hydrate (350 mg/kg), and fixed on its back. The skin was incised along the neck median line to expose the carotid artery at the right side, and the internal and external carotid artery were separated. 3# nylon wire (a diameter of 0.285 mm) was inserted from the free end of the external carotid artery, introduced into the internal carotid artery from the distal end of the external carotid artery, and inserted at the artery of Willis's circle in brain, to effectively occlude the middle cerebral artery. The inserted nylon wire was 18˜20 mm away from carotid artery bifurcation. The free end of the external carotid artery and the intra cavitary nylon wire were ligated, to prevent bleeding. […] After middle cerebral artery occlusion (MCAO) for 2 h, the nylon wire was carefully drawn out from the internal carotid artery, and the internal carotid artery was subjected to reperfusion. […] The animals were grouped depending on the score of nerve function. Three groups were classified in the experiment, 15 animals for each group. […] In the sham-operated group and the model control group, an equal volume of 0.3% sodium carboxymethyl cellulose (CMC-Na) was administered. […] The rat was decapitated and the brain was taken 48 h after reperfusion, and was quickly frozen. The brain was cut along the coronal plane to obtain a 2 mm-thick slice. The brain slice was put in 1% TTC stain solution, and stained at 37° C. in dark by incubation for 30 min. After fixing with 10% formaldehyde solution for 1 week, the digits and images were stored in computer by digital camera imaging system. The infarction area and the whole brain area were determined by Medical Microscopic image Compute-aided Analysis System (MIAS) of Image Center of Beihang University, and the cerebral infarction percentage was calculated (the percentage of the infarction area in the whole brain area). […]

[3] = test system: ischemia/reperfusion rats; test: Evaluation of the degree of nerve function impairment (behavior score) in MCAO ischemia/reperfusion rats; format: in vivo, rat
Description: SD male rat was fasted one night, with free access to water. At the day of experiment, the rat was anesthetized by intraperitoneal injection of 35% chloral hydrate (350 mg/kg), and fixed on its back. The skin was incised along the neck median line to expose the carotid artery at the right side, and the internal and external carotid artery were separated. 3# nylon wire (a diameter of 0.285 mm) was inserted from the free end of the external carotid artery, introduced into the internal carotid artery from the distal end of the external carotid artery, and inserted at the artery of Willis's circle in brain, to effectively occlude the middle cerebral artery. The inserted nylon wire was 18˜20 mm away from carotid artery bifurcation. The free end of the external carotid artery and the intra cavitary nylon wire were ligated, to prevent bleeding. […] After middle cerebral artery occlusion (MCAO) for 2 h, the nylon wire was carefully drawn out from the internal carotid artery, and the internal carotid artery was subjected to reperfusion. […] The animals were grouped depending on the score of nerve function. Three groups were classified in the experiment, 15 animals for each group. […] In the sham-operated group and the model control group, an equal volume of 0.3% sodium carboxymethyl cellulose (CMC-Na) was administered. […] 2.3.1 Evaluation of the degree of nerve function impairment: the behavioral disorder of the animal was scored by double blind method at 1 h (before administration), 12 h, 24 h, 36 h, 48 h after reperfusion, according to the score standards in the following table, so as to evaluate the degree of nerve function impairment, wherein the total score is 16, the higher the score is, the more serious the degree of nerve function impairment is in the animal (Li Qian, Wang Qiujuan, Guo Qinglong, Protective effect of TQ0701-2 on cerebral ischemia reperfusion injury in rats [J]. CHINESE JOURNAL OF CLINICAL PHARMACOLOGY AND THERAPEUTICS, 2010, 15(1): 36-40.) Data was processed by the statistical analysis software SPSS11.5, and the results were expressed by x±s, and mathematical statistics were performed by using t-test for normal distribution data and using rank-sum test for skewed distribution.

[4] = cited from earlier work; for substances detected in rat plasma: oral
[5] = compared with scutellarin; cited from earlier work
[6] = 360 mg scutellarin orally to a subject, 5 h (blood collected at 1, 3, 5, 8 h; determined only at 5 h); cited from earlier work

Which “stability of crystal form” value [1] does the source give for `O=c1cc(-c2ccc(O)cc2)oc2cc(O)c(O)c(O)c12` [crystal form A, 5,6,7-trihydroxy-2-(4-hydroxyphenyl)-4H-benzopyran-4-one] here?
Its value is “the most stable crystal forms”.

What does the source list for `O=c1cc(-c2ccc(O)cc2)oc2cc(O)c(O)c(O)c12` [scutellarin aglycone, 5,6,7-trihydroxy-2-(4-hydroxyphenyl)-4H-benzopyran-4-one]?
reducing rate of cerebral infarction area ([2]; crystal form A, 45.8 mg/kg intragastric, compared to model control group, P<0.05): 42.46%; Cerebral infarction percentage (%) ([2]; ischemia/reperfusion rats, 45.8 mg/kg, TTC stain, x ± s, n = 15): 9.16 ± 0.09 %; Reducing rate (%) ([2]; reduction of cerebral infarction percentage compared to the model control group, 45.8 mg/kg): 42.46%; improvement rate of nerve function disorder ([3]; crystal form A, 45.8 mg/kg intragastric, 48 h, compared to model control group, P<0.05): 34.97%; Behavior score at different time after reperfusion, 1 h ([3]; ischemia/reperfusion rats, 45.8 mg/kg, 1 h after reperfusion (before administration), total score 16, x ± s, n = 15): 10.57 ± 2.22; Behavior score at different time after reperfusion, 12 h ([3]; ischemia/reperfusion rats, 45.8 mg/kg, 12 h after reperfusion, total score 16, x ± s, n = 15): 7.96 ± 2.29; Behavior score at different time after reperfusion, 24 h ([3]; ischemia/reperfusion rats, 45.8 mg/kg, 24 h after reperfusion, total score 16, x ± s, n = 15): 7.15 ± 2.56; Behavior score at different time after reperfusion, 36 h ([3]; ischemia/reperfusion rats, 45.8 mg/kg, 36 h after reperfusion, total score 16, x ± s, n = 15): 6.23 ± 2.87; Behavior score at different time after reperfusion, 48 h ([3]; ischemia/reperfusion rats, 45.8 mg/kg, 48 h after reperfusion, total score 16, x ± s, n = 15): 5.69 ± 2.67; substances detected in rat plasma ([4]; 20 mg/kg scutellarin aglycone): only scutellarin was detected; substances detected in rat plasma ([4]; 200 mg/kg scutellarin aglycone): both scutellarin aglycone and scutellarin could be detected; metabolic stability ([4]; rats, intragastric, relative to scutellarin): metabolically stable relative to scutellarin; oral absorption relative to scutellarin [5]: about 3 fold; permeability in gastrointestinal tract [5]: higher permeability in gastrointestinal tract than scutellarin

Which “blood concentration of scutellarin” value [6] does the source give for `O=C(O)[C@H]1O[C@@H](Oc2cc3oc(-c4ccc(O)cc4)cc(=O)c3c(O)c2O)[C@H](O)[C@@H](O)[C@@H]1O` [scutellarin] here?
The value was 20 ng/mL.
